Consider two compounds from EP4663204A1, “COMPOUNDS USEFUL FOR THE MODULATION OF THE ACTIVITY OF STING” (Sulis Therapeutics ApS, priority 2024, dated 2025).

Data set [1] has as its target T1, STING (Homo sapiens, UniProt Q86WV6). In words: Western Blot analysis for STING degradation in H596, H1650 and HaCat cells. The note with it: 0.22 µM, 0.67 µM, 2 µM and 6 µM, 24h, Figure 4. Type of data set: cell-based. The method, then: To assess STING degradation in H596 cells (ATCC, HTB-178) cells were seeded at a density of 100.000 cells/well in 24-well Nunclon Delta surface treated culture plate in RPMI-1640 growth medium (supplemented with 10% FBS, 1% Pen-strep). Cells were incubated over-night at 37°C 5% CO2 to allow adhesion. Next day growth medium was renewed and a 5x concentration of test compounds (2.5% DMSO) diluted in growth medium were added to the appropriate well. Final DMSO concentration was 0.5%. Cell culture plates were returned to the incubator for additional 24h. The same protocols were used to grow H1650 and HaCat cells except that cells were seeded at a density of 150,000 cells/well and 250,000 cells/well, respectively
Final test compound concentrations were 0.22 µM, 0.67 µM, 2 µM and 6 µM.
For cell lysis, western blotting and data analysis, the following methods were applied.
For cell lysing for Western Blot analysis cell culture plates were brought to ice, supernatant was removed by aspiration and cells washed 2x in ice-cold DPBS. […] Samples were either analysed directly or stored at -80°C until analysis.
For Western Blotting, total protein concentration in each lysate was determined using PIERCE Gold BCA Assay kit according to manufactures protocol. […]
A general note: A western blot detects proteins with antibodies after separation by electrophoresis.

In data set [2] the target is T2, constitutively active STING (comprising a N154S mutation) (Homo sapiens, UniProt Q86WV6, N154S).
T2 construct: primary fibroblast cells with constitutively active STING (comprising a N154S mutation), derived from SAVI patients; endogenous in cells; host or cells: SAVI patient primary fibroblasts
In words: Western Blot analysis for STING degradation in SAVI patient primary fibroblast cells. The data set is classed as cell-based. The note with it: SAVI patient fibroblasts (N154S); 1 µM; 20 hours; Figure 7. The method, then: (§1) For this study, STING degradation was assessed in primary fibroblast cells with constitutively active STING (comprising a N154S mutation), derived from SAVI patients, and compared to healthy donor primary fibroblast cells.
(§2) Cells were seeded at 50,000 cells/well and cultured under standard conditions for 24 hours. Media was replaced with test compound and incubated for 20 hours prior to analysis.
(§3) Cell culture medium was replaced with fresh medium containing 1 µM Example compound and incubated for 20 hours. For cell lysis and western blotting, the methods described above for HFF-1 cells were applied.

In the next data set the target is T3, wild-type STING (Homo sapiens, UniProt Q86WV6).
T3 construct: compared to healthy donor primary fibroblast cells; endogenous in cells; host or cells: healthy donor primary fibroblasts
In words: Western Blot analysis for STING degradation in healthy donor primary fibroblast cells. Type of data set: cell-based. The note with it: healthy donor fibroblasts; 1 µM; 20 hours; Figure 7. As to the method: as §1, §2, §3

Data set [3] is described as follows: Pharmacokinetic profiling in mouse. The data set is classed as in vivo. The note with it: plasma, sc, mice, subcutaneous injection (8 mg/kg stated for Example compound 12), 8 hours after injection. As to the method: Mice were administered with 8 mg/kg Example compound 12 by subcutaneous injection. Plasma concentration of test compound was measured over the course of 8 hours.

Data set [4] concerns the target T1, STING. As to the kind of experiment: Western Blot analysis for STING recovery following compound washout in HFF-1 cells. The data set is classed as cell-based. Further details: To assess STING degradation and recovery in human foreskin fibroblasts HFF-1 cells; host or cells: HFF-1 human foreskin fibroblasts. The note with it: 24 hours treatment, 48 hours after washout, Figure 6. As to the method:
To assess STING degradation and recovery in human foreskin fibroblasts HFF-1 cells (ATCC, SCRC-1041) cells were seeded at a density of 60.000 cells/well in 24-well Nunclon Delta surface treated culture plate in DMEM growth medium (supplemented with 10% FBS, 1% Pen-strep). Cells were incubated over-night at 37°C 5% CO2 to allow adhesion. Next day growth medium was renewed and a 5x concentration of test compounds (2.5% DMSO) diluted in growth medium were added to the appropriate well. The final DMSO concentration were 0.5%. Cell culture plates were returned to the incubator for additional 24h.
Methods as described above for H596, H1650 and HaCat cells were applied for cell lysis and western blotting. Following 24 hours incubation with the test compounds, cell culture medium containing Example compound was removed, cells washed with fresh medium without Example compound, and incubated in fresh medium without Example compound for the indicated time.

In data set [5] the test system is CXCL10, IL-6, MCP-1 (CCL2), MIP-1α (CCL3) and IFN-γ. In words: Serum cytokine and chemokine levels in mice, with or without LPS (V-Plex immunoassay). The data set is classed as in vivo. The note with it: compound followed by LPS 16 hours later. The method, then:
A compound of the invention (Example compound 12; "Ex 12"), or a control S1-L-E compound (control Example compound 7; "Ex 7"), were administered to subjects following the in vivo protocol of Example 1. 16 hours after that administration, some subjects were administered lipopolysaccharide (LPS).
In subjects that received LPS alone, serum levels of CXCL10, IL-6, MCP-1 (CCL2) and MIP-1α (CCL3) were raised 100-1000 fold above the levels in control subjects that received vehicle alone. (In both cases, IFN-γ levels were below the 10 pg/mL threshold of detection.) In subjects that received the compound of the invention, followed by LPS 16 hours later, CXCL10, IL-6, MCP-1 (CCL2) and MIP-1α (CCL3) levels were a further ten-fold higher than the levels in subjects that received LPS alone (see Figure 2). […] IFN-γ levels were only detectable in subjects that had been administered the compound of the invention, with LPS treatment after 16 hours resulting in a further elevation in IFN-γ levels to a small extent. Quantification of cytokines and chemokines was performed on individual serum samples that were stored frozen (≤ -20 °C) after collection, using the electrochemiluminescence-based immunoassay and a custom mouse 5-plex panel according to the manufacturer's instructions (V-Plex assay, Mesoscale Discovery, USA).

Molecules are shown by their SMILES. “Also recorded” adds a separate entry of the source.

T1 sequence (Q86WV6 whole entry): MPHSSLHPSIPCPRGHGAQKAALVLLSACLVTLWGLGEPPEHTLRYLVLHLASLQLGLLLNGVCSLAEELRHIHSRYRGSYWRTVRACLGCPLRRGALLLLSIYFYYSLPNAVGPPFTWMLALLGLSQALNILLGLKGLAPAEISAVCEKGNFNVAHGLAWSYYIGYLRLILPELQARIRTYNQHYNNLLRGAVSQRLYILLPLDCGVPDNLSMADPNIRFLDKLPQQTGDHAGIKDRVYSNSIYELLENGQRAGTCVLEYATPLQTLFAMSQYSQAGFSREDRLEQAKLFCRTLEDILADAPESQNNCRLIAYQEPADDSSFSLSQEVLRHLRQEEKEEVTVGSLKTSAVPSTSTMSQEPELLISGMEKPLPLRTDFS
T2 sequence (Q86WV6 whole entry N154S): as the sequence (Q86WV6 whole entry) above, with N154S counted along it
T3 sequence (Q86WV6 whole entry): as the sequence (Q86WV6 whole entry) above

For the compound `CCn1nc(C)cc1C(=O)N=c1n(C)c2cc(C(N)=O)ccc2n1CCC(CCn1c(=NC(=O)c2cc(C)nn2CC)n(C)c2cc(C(N)=O)ccc21)OCC(=O)NCCOCCOCCOCCOCCC(=O)NCCOCCOCCOCCOCCNc1cccc2c1C(=O)N(C1CCC(=O)NC1=O)C2=O` (stereo not shown) [Example compound 7], the STING degradation result on STING [1] is “induction of STING degradation; also recorded: induce STING degradation in all cell lines tested at all concentrations tested”; in data set [2] it was “induce STING degradation”; on wild-type STING it was “induce STING degradation”. In data set [3], this compound returned a concentration at 8 h of around 100 nM. The “STING protein recovery after washout” value at STING [4] is recorded as “fail to recover to pre-treatment levels”. The “CXCL10, IL-6, MCP-1 (CCL2) and MIP-1α (CCL3) levels relative to subjects that received LPS alone” value in data set [5] is reported as “only further elevated to a small extent”.
As to `CCn1nc(C)cc1C(=O)N=c1n(C)c2cc(C(N)=O)ccc2n1CCC(CCn1c(=NC(=O)c2cc(C)nn2CC)n(C)c2cc(C(N)=O)ccc21)OCC(=O)NCCOCCOCCOCCOCCC(=O)NCCOCCOCCOCCOCC(=O)N[C@H](C(=O)N1C[C@H](O)C[C@H]1C(=O)NCc1ccc(-c2scnc2C)cc1)C(C)(C)C` (stereo partly shown) [Example compound 6], the STING degradation entry on STING [1] is “induction of STING degradation; also recorded: induces visible degradation in H1650 and H596 at higher concentrations”.
